Assay results from PubChem BioAssay (NCI).
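At the GI50, growth is halved. The concentration for full growth arrest is given as TGI.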

Legend:
Assay in all cases: NCI tumour cell line growth inhibition, 384-well format
OVCAR-3 ovarian = tested on: OVCAR-3 ovarian
SK-MEL-28 melanoma = tested on: SK-MEL-28 melanoma
786-0 renal = tested on: 786-0 renal
IGROV1 ovarian = tested on: IGROV1 ovarian
U251 glioblastoma = tested on: U251 glioblastoma
BT-549 breast = tested on: BT-549 breast
SNB-75 CNS = tested on: SNB-75 CNS
SF-539 CNS = tested on: SF-539 CNS
NCI-H460 NSCLC = tested on: NCI-H460 NSCLC
KM12 colon = tested on: KM12 colon
HOP-62 NSCLC = tested on: HOP-62 NSCLC
M14 melanoma = tested on: M14 melanoma
SR leukemia = tested on: SR leukemia
TK-10 renal = tested on: TK-10 renal
SK-MEL-5 melanoma = tested on: SK-MEL-5 melanoma
HL-60(TB) leukemia = tested on: HL-60(TB) leukemia
SK-MEL-2 melanoma = tested on: SK-MEL-2 melanoma
NCI-H322M lung = tested on: NCI-H322M lung
CAKI-1 renal = tested on: CAKI-1 renal
HCT-116 colon = tested on: HCT-116 colon
COLO 205 colon = tested on: COLO 205 colon
UO-31 renal = tested on: UO-31 renal
A549 NSCLC = tested on: A549 NSCLC
HS 578T breast = tested on: HS 578T breast
SW-620 colon = tested on: SW-620 colon
RXF 393 renal = tested on: RXF 393 renal
NCI-H23 lung = tested on: NCI-H23 lung
UACC-62 melanoma = tested on: UACC-62 melanoma
SF-268 CNS = tested on: SF-268 CNS
UACC-257 melanoma = tested on: UACC-257 melanoma
MDA-MB-231 breast = tested on: MDA-MB-231 breast
NCI-H522 lung = tested on: NCI-H522 lung
MOLT-4 leukemia = tested on: MOLT-4 leukemia
A498 renal = tested on: A498 renal
HOP-92 NSCLC = tested on: HOP-92 NSCLC
OVCAR-4 ovarian = tested on: OVCAR-4 ovarian
K-562 leukemia = tested on: K-562 leukemia
SNB-19 CNS = tested on: SNB-19 CNS
EKVX NSCLC = tested on: EKVX NSCLC
T-47D breast = tested on: T-47D breast
MDA-MB-468 breast = tested on: MDA-MB-468 breast
HCT-15 colon = tested on: HCT-15 colon
MCF7 breast = tested on: MCF7 breast
OVCAR-5 ovarian = tested on: OVCAR-5 ovarian
SF-295 CNS = tested on: SF-295 CNS
DU-145 prostate = tested on: DU-145 prostate
MALME-3M melanoma = tested on: MALME-3M melanoma
ACHN renal = tested on: ACHN renal
HT29 colon = tested on: HT29 colon
SN12C renal = tested on: SN12C renal
OVCAR-8 ovarian = tested on: OVCAR-8 ovarian
PC-3 prostate = tested on: PC-3 prostate
SK-OV-3 ovarian = tested on: SK-OV-3 ovarian
MDA-MB-435 melanoma = tested on: MDA-MB-435 melanoma
NCI-H226 lung = tested on: NCI-H226 lung

Cc1cc(C)c(CNC(=O)c2cc(Cl)c3c(c2C)O[C@@](C)(C2CCC(N(C)C)CC2)O3)c(=O)[nH]1 (stereo not given in full)
GI50 (OVCAR-3 ovarian): 72 µM
TGI (OVCAR-3 ovarian): > 100 µM
GI50 (SK-MEL-28 melanoma): 83 µM
TGI (SK-MEL-28 melanoma): > 100 µM
GI50 ([…]-0 renal): 16.1 µM
TGI (786-0 renal): 32 µM
GI50 (IGROV1 ovarian): 51 µM
TGI (IGROV1 ovarian): > 100 µM
GI50 (U251 glioblastoma): 72.9 µM
TGI (U251 glioblastoma): > 100 µM
GI50 (BT-549 breast): 19 µM
TGI (BT-549 breast): 45 µM
GI50 (SNB-75 CNS): 18.6 µM
TGI (SNB-75 CNS): 60.3 µM
GI50 (SF-539 CNS): 35 µM
TGI (SF-539 CNS): > 100 µM
GI50 (NCI-H460 NSCLC): 37.2 µM
TGI (NCI-H460 NSCLC): > 100 µM
GI50 (KM12 colon): 59.4 µM
TGI (KM12 colon): > 100 µM
GI50 (HOP-62 NSCLC): > 100 µM
TGI (HOP-62 NSCLC): > 100 µM
GI50 (M14 melanoma): 38.2 µM
TGI (M14 melanoma): > 100 µM
GI50 (SR leukemia): 19.8 µM
TGI (SR leukemia): 34.1 µM
GI50 (TK-10 renal): 33.4 µM
TGI (TK-10 renal): > 100 µM
GI50 (SK-MEL-5 melanoma): 17.6 µM
TGI (SK-MEL-5 melanoma): 37.2 µM
GI50 (HL-60(TB) leukemia): 15.4 µM
TGI (HL-60(TB) leukemia): 37.6 µM
GI50 (SK-MEL-2 melanoma): 17.4 µM
TGI (SK-MEL-2 melanoma): 45.6 µM
GI50 (NCI-H322M lung): > 100 µM
TGI (NCI-H322M lung): > 100 µM
GI50 (CAKI-1 renal): 19.1 µM
TGI (CAKI-1 renal): 39.2 µM
GI50 (HCT-116 colon): 38.6 µM
TGI (HCT-116 colon): > 100 µM
GI50 (COLO 205 colon): > 100 µM
TGI (COLO 205 colon): > 100 µM
GI50 (UO-31 renal): 63.1 µM
TGI (UO-31 renal): > 100 µM
GI50 (A549 NSCLC): 76.2 µM
TGI (A549 NSCLC): > 100 µM
GI50 (HS 578T breast): 13.8 µM
TGI (HS 578T breast): 32.7 µM
GI50 (SW-620 colon): > 100 µM
TGI (SW-620 colon): > 100 µM
GI50 (RXF 393 renal): 7.55 µM
TGI (RXF 393 renal): 21.2 µM
GI50 (NCI-H23 lung): 46.8 µM
TGI (NCI-H23 lung): > 100 µM
GI50 (UACC-62 melanoma): 32.6 µM
TGI (UACC-62 melanoma): > 100 µM
GI50 (SF-268 CNS): 45.4 µM
TGI (SF-268 CNS): > 100 µM
GI50 (UACC-257 melanoma): 22.7 µM
TGI (UACC-257 melanoma): 51.8 µM
GI50 (MDA-MB-231 breast): > 100 µM
TGI (MDA-MB-231 breast): > 100 µM
GI50 (NCI-H522 lung): > 100 µM
TGI (NCI-H522 lung): > 100 µM
GI50 (MOLT-4 leukemia): 29.2 µM
TGI (MOLT-4 leukemia): 77.5 µM
GI50 (A498 renal): 20.4 µM
TGI (A498 renal): 37.1 µM
GI50 (HOP-92 NSCLC): 40 µM
TGI (HOP-92 NSCLC): > 100 µM
GI50 (OVCAR-4 ovarian): > 100 µM
TGI (OVCAR-4 ovarian): > 100 µM
GI50 (K-562 leukemia): 14.9 µM
TGI (K-562 leukemia): 30.5 µM
GI50 (SNB-19 CNS): > 100 µM
TGI (SNB-19 CNS): > 100 µM
GI50 (EKVX NSCLC): 48.9 µM
TGI (EKVX NSCLC): > 100 µM
GI50 (T-47D breast): > 100 µM
TGI (T-47D breast): > 100 µM
GI50 (MDA-MB-468 breast): 24.9 µM
TGI (MDA-MB-468 breast): 73.2 µM
GI50 (HCT-15 colon): 71.1 µM
TGI (HCT-15 colon): > 100 µM
GI50 (MCF7 breast): 44.9 µM
TGI (MCF7 breast): > 100 µM
GI50 (OVCAR-5 ovarian): > 100 µM
TGI (OVCAR-5 ovarian): > 100 µM
GI50 (SF-295 CNS): 35.1 µM
TGI (SF-295 CNS): > 100 µM
GI50 (DU-145 prostate): 81.1 µM
TGI (DU-145 prostate): > 100 µM
GI50 (MALME-3M melanoma): 25.1 µM
TGI (MALME-3M melanoma): 56.9 µM
GI50 (ACHN renal): > 100 µM
TGI (ACHN renal): > 100 µM
GI50 (HT29 colon): 21.3 µM
TGI (HT29 colon): 48.7 µM
GI50 (SN12C renal): 76.6 µM
TGI (SN12C renal): > 100 µM
GI50 (OVCAR-8 ovarian): > 100 µM
TGI (OVCAR-8 ovarian): > 100 µM
GI50 (PC-3 prostate): 56.3 µM
TGI (PC-3 prostate): > 100 µM
GI50 (SK-OV-3 ovarian): > 100 µM
TGI (SK-OV-3 ovarian): > 100 µM
GI50 (MDA-MB-435 melanoma): 73.4 µM
TGI (MDA-MB-435 melanoma): > 100 µM
GI50 (NCI-H226 lung): 44.3 µM
TGI (NCI-H226 lung): > 100 µM
